The target of the experiment is T1, glucocorticoid receptor (GR) (Homo sapiens, UniProt P04150).
T1 sequence (P04150 521-777): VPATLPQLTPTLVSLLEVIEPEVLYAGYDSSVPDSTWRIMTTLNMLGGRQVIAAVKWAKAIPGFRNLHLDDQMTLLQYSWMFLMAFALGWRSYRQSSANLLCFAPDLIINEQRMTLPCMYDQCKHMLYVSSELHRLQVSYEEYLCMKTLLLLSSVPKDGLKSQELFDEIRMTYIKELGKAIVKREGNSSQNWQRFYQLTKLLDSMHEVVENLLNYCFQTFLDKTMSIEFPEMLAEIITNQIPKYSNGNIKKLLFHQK
In words: Assay for agonist activity on glucocorticoid receptor (luciferase reporter, HEK293 cells transfected with pBIND-GR plasmid). It counts as cell-based. As to conditions: HEK293 cells transfected with pBIND-GR, luciferase signal; read-out: GR agonist EC50. How it is done:
Pharmacological Example 1: Assay for Agonist Activity on Glucocorticoid Receptor (GR)
The test compounds were subjected to a 4-fold serial dilution starting from an initial concentration of 10 µ M, generating a 10-point concentration gradient with duplicate wells for each concentration. The blank control consisted of 0.1 % DMSO.
The HEK293 stable cell line […] transfected with glucocorticoid receptor (GR) (ICE Bioscience, Lot No. TYP-20220519) was cultured in Dulbecco's Modified Eagle Medium (DMEM) supplemented with 10% fetal bovine serum (FBS) and 200 µ g/ml Hygromycin B in a cell incubator containing 5% CO2 at 37 °C. The spent medium was aspirated and the cells were washed once with phosphate-buffered saline (PBS). Then, 1 mL of TrypLE™ Express solution was added, and the cells were incubated at 37 °C for approximately 2 min. When the cells detached from the bottom of the cell culture dish, approximately 5 mL of pre-warmed complete medium at 37 °C was added. The cell suspension was gently pipetted with a pipette to dissociate clumped cells. The cell suspension was transferred to a sterile centrifuge tube and centrifuged at 1000 rpm for 5 min to pellet the cells for experiments or subculture.
HEK293 cells were digested and seeded into 6-cm culture dishes. The pBIND-GR plasmid was transfected into the HEK293 cells using a transfection reagent, resulting in HEK293 cells successfully transfected with the pBIND-GR plasmid. The cells were resuspended in phenol red-free DMEM medium containing 5% charcoal-stripped serum, counted, and then seeded into 96-well plates. The test compounds were added, and the plates were then incubated in an incubator. The luminescence signal values were measured using a multimode microplate reader following the instructions of the luciferase assay kit. The EC50 values of each test compound were calculated using the nonlinear fitting formula with GraphPad Prism 8.0 software.
For the molecule `C[C@]12C=CC(=O)C=C1CC[C@@H]1[C@@H]2[C@@H](O)C[C@@]2(C)[C@H]1C[C@H]1OC(c3ccc(CSC4COC(=O)C4)cc3C#N)O[C@]12C(=O)CO` (stereo partly drawn) [Compound 32, 2-((6aR,6bS,7S,8aS,8bS,11aR,12aS,12bS)-7-Hydroxy-8b-(2-hydroxyacetyl)-6a,8a-dimethyl-4-oxo-2,4,6a,6b,7,8,8a,8b,11a,12,12a,12b-dodecahydro-1H-naphtho[2',1':4,5]indeno[1,2-d][1,3]dioxol-10-yl)-5-(((5-oxotetrahydrofuran-3-yl)thio)methyl)benzonitrile], the EC50 turned out to be 3.67 nM. As to `C[C@]12C=CC(=O)C=C1CC[C@@H]1[C@@H]2[C@@H](O)C[C@@]2(C)[C@H]1C[C@H]1OC(c3ccc(CNC4COC(=O)C4)cc3)O[C@]12C(=O)CO` (stereo partly drawn) [Compound 33, (6aR,6bS, 7S,8aS,8bS,11aR,12aS,12bS)-7-Hydroxy-8b-(2-hydroxyacetyl)-6a,8a-dimethyl-10-(4-(( (5-oxotetrahydrofuran-3-yl)amino)methyl)phenyl)-1,2,6a,6b,7,8,8a,8b,11a,12,12a,12b-dodecahydr o-4H-naphtho[2',1':4,5]indeno[1,2-d][1,3]dioxol-4-one], the EC50 amounted to 4.38 nM. As for `C[C@]12C=CC(=O)C=C1CC[C@H]1[C@@H]3C[C@H]4OC(c5ccc(CSC6COC(=O)C6)cc5)O[C@@]4(C(=O)CCl)[C@@]3(C)C[C@H](O)[C@@]12Cl` (stereo partly drawn) [Compound 39, (6aS,6bR,7S,8aS,8bS,11aR,12aS,12bS)-6b-Chloro-8b-(2-chloroacetyl)-7-hydroxy-6a,8a-dimethyl-10-(4-(((5-oxotetrahydrofuran-3-yl)thio)methyl)phenyl)-l,2,6a,6b,7,8,8a,8b,11a,12,12a,12b-dode cahydro-4H-naphtho[2',1':4,5]indeno[1,2-d][1,3]dioxol-4-one], the figure is 3.31 nM; as for `C[C@]12C=CC(=O)C=C1CC[C@H]1[C@@H]3C[C@H]4OC(c5ccc(OC6CCOC6=O)cc5)O[C@@]4(C(=O)CO)[C@@]3(C)C[C@H](O)[C@@]12F` (stereo partly drawn) [Compound 40, (6aS,6bR,7S,8aS,8bS,11aR,12aS,12bS)-6b-Fluoro-7-hydroxy-8b-(2-hydroxyacetyl)-6a,8a-dimethyl-10-(4-((2-oxotetrahydrofuran-3-yl)oxy)phenyl)-1,2,6a,6b,7,8,8a,8b,11a,12,12a,12b-dodecahydr o-4H-naphtho[2',1':4,5]indeno[1,2-d][1,3]dioxol-4-one], 30.7 nM; as for `C[C@]12C=CC(=O)C=C1CC[C@H]1[C@@H]3C[C@H]4OC(c5ccc(NC6CCOC6=O)cc5)O[C@@]4(C(=O)CO)[C@@]3(C)C[C@H](O)[C@@]12F` (stereo partly drawn) [Compound 42, (6aS,6bR,7S,8aS,8bS,11aR,12aS,12bS)-6b-Fluoro-7-hydroxy-8b-(2-hydroxyacetyl)-6a,8a-dimethyl-10-(4-((2-oxotetrahydrofuran-3-yl)amino)phenyl)-1,2,6a,6b,7,8,8a,8b,11a,12,12a,12b-dodecahy dro-4H-naphtho[2',1':4,5]indeno[1,2-d][1,3]dioxol-4-one], 19.5 nM. With `C[C@]12C=CC(=O)C=C1CC[C@H]1[C@@H]3C[C@H]4OC(c5ccc(CC6CCOC6=O)cc5)O[C@@]4(C(=O)CO)[C@@]3(C)C[C@H](O)[C@@]12F` (stereo partly drawn) [Compound 43, (6aS,6bR,7S,8aS,8bS,11aR,12aS,12bS)-6b-Fluoro-7-hydroxy-8b-(2-hydroxyacetyl)-6a,8a-dimethyl-10-(4-((2-oxotetrahydrofuran-3-yl)methyl)phenyl)-1,2,6a,6b,7,8,8a,8b,11a,12,12a,12b-dodecah ydro-4H-naphtho[2',1':4,5]indeno[1,2-d][1,3]dioxol-4-one], the EC50 amounted to 7.71 nM. In the case of `C[C@]12C=CC(=O)C=C1CC[C@H]1[C@@H]3C[C@H]4OC(C5CCN(CC6CCOC6=O)CC5)O[C@@]4(C(=O)CO)[C@@]3(C)C[C@H](O)[C@@]12F` (stereo partly drawn) [Compound 44, (6aS,6bR,7S,8aS,8bS,11aR,12aS,12bS)-6b-Fluoro-7-hydroxy-8b-(2-hydroxyacetyl)-6a,8a-dimethyl-10-(1-((2-oxotetrahydrofuran-3-yl)methyl)piperidin-4-yl)-1,2,6a,6b,7,8,8a,8b,11a,12,12a,12b-d odecahydro-4H-naphtho[2',1':4,5]indeno[1,2-d][1,3]dioxol-4-one] it was 15.1 nM.

In general, EC50 refers to the concentration needed to bring the measured effect to its halfway point.

(Values after patent EP4635969A1, “NOVEL GLUCOCORTICOID, METHOD FOR PREPARING SAME, AND USE THEREOF” (Tianjin Pharmaceutical Biotechnology Co., Ltd., priority 2022, dated 2024).)
